The text below walks through data of US20030215888A1, “Androgen receptor overexpressing skeletal myoblasts” (Pfizer Inc., priority 2002, published 2003).

For one assay, the system named is C2hAR57 cells. Conditions: for protein content / protein content, percentage difference from vehicle: 3 days in fusion medium. The protocol:
Procedure A—Three days in fusion medium. C2hAR57 cells were plated in 12-well tissue culture plates (Costar, Corning, N.Y.) at 4×10^4 cells/well in high mitogen growth medium.

The next assay has as its system C2C12 cells. To be noted: C2C12, addition of DHT, fusion medium.

Where two headings read alike, the source gives them in different places.

Text for C2C12 cells: Fusion medium was changed daily. C2hAR57 cells at low density in high mitogen growth medium appeared as small, adherent mononuclear cells.

For `C[C@]12CCC(=O)C[C@@H]1CC[C@@H]1[C@@H]2CC[C@]2(C)[C@@H](O)CC[C@@H]12` [DHT, dihydrotestosterone], the protein content in the assay with C2hAR57 cells (C2hAR57, 0.001 nM DHT) is reported as 123 ± 6 micrograms/well; in the assay with C2hAR57 cells (C2hAR57, 0.01 nM DHT) it was 127 ± 11 micrograms/well; in the assay on C2hAR57 cells (C2hAR57, 0.1 nM DHT), 152 ± 2 micrograms/well; in the assay with C2hAR57 cells (C2hAR57, 1 nM DHT) it was 188 ± 4 micrograms/well; with C2hAR57 cells (C2hAR57, 10 nM DHT), 199 ± 10 micrograms/well; in the assay on C2hAR57 cells (C2hAR57, 100 nM DHT), 200 ± 4 micrograms/well. The molecule also gave a protein content in the assay with C2hAR57 cells (C2hAR57, 1000 nM DHT) of 212 ± 3 micrograms/well. For the same molecule, the “protein content, percentage difference from vehicle” value is reported as −1% with C2hAR57 cells (C2hAR57, 0.001 nM DHT); “+3%” with C2hAR57 cells (C2hAR57, 0.01 nM DHT); “+23%” in the assay on C2hAR57 cells (C2hAR57, 0.1 nM DHT); “+52%” with C2hAR57 cells (C2hAR57, 1 nM DHT); “+61%” in the assay on C2hAR57 cells (C2hAR57, 10 nM DHT); “+62%” with C2hAR57 cells (C2hAR57, 100 nM DHT). The “protein content, percentage difference from vehicle” value in the assay on C2hAR57 cells (C2hAR57, 1000 nM DHT) is “+71%”. Moreover, the “dose-related increase in total protein content” value in the assay on C2hAR57 cells (differentiating C2hAR57 cultures, DHT 10^-12-10^-6 M, Procedure A) is given as “up to 71%”. Further, in the assay on C2C12 cells, the “rate and extent of myotube formation” value is “neither the rate nor the extent of myotube formation in cultures of C2C12 was visibly affected”.
